# Assay results from patent US8541033B2, “Production of human antibodies using NOD/SCID/γcnull mice” (Central Institute for Experimental Animals, priority 2000, dated 2013).
# How the values were obtained:
# SLB-1 = test: Effect of CXCR4 antagonist on in vivo growth of SLB-1 tumor in NOG mice; details: 7.5×10^7 cells inoculated, KRH-1636 0.14 mg/mouse intraperitoneally every day, 15 days
# Experimental: (§1) Using 3 samples of HTLV-1 leukemia derived cell lines [L=Leukemic cell lines: ED-40515(−), MT-1 and TL-Oml], 6 samples of HTLV-1 infected cell lines [IT=infected transformed cell lines: SLB-1, M8116, HUT-102, MT-2, MT-4 and TY9-31MT], 10^7-8 cells/0.5 mL were transplanted to NOG mice and NOD/Shi-scid mice subcutaneously at a left posterior auricle thereof, and to some of them subcutaneously at a gluteal region thereof. Then, the tumor size in the mice, tissue image, and the mice with, and those without, leukemia were chronologically compared for examination, and the relations between these and transcription factors such as NFkB or fluctuation of Tax protein were also analyzed.
# (§2) Assuming that effective tumor formation by 10^7 of ED-40515(−) in NOG mice was attributable to active neogenesis of tumoral vessels via CXCR4 of tumor cells, it has been expected that tumor formation would be inhibited as long as there was continuous administration of KRH-1636, a competitive agent of SDF-1 which was a ligand thereof in endothelial cells. However, in the case of ED-40515(−) and SLB-1 (histologically angiotropic) accompanied by bleeding, the mice formed tumors with sizes of 25×18×12 mm and 20×10×18 mm equivalent to those of non-treated group, even though KRH-1636 was intraperitoneally administered every day.
# ED-40515(−) = test: Effect of CXCR4 antagonist on in vivo growth of ED-40515(−) tumor in NOG mice; details: 7.5×10^7 cells inoculated, KRH-1636 0.14 mg/mouse intraperitoneally every day, 15 days
# Experimental: as §1, §2
compound,measurement,setting,value
C[C@H](NC(=O)[C@H](CCCN=C(N)N)NC(=O)c1ccc(CNCc2ccccn2)cc1)c1cccc2ccccc12 [KRH-1636],Remarks (tumor),SLB-1,progressive large tumor
same,Remarks (tumor),ED-40515(−),progressive large tumor
